Where two headings read alike, the source gives them in different places.

Assay [1] concerns the target P. falciparum 3D7-luc. The assay is described as follows: Parasite growth inhibition, luciferase-expressing strain 3D7-luc. The class given is cell-based, Plasmodium falciparum. Particulars: for IC50: read-out: IC50s for 3D7 growth.
Assay [2] relates to rat PRMT1 (rPRMT1). Particulars: cited from earlier work.
Assay [3] has as its target T1, recombinant PfPRMT1 (MBP-PfPRMT1) (Plasmodium falciparum, UniProt Q8ILK1).
T1 sequence (Q8ILK1 1-401): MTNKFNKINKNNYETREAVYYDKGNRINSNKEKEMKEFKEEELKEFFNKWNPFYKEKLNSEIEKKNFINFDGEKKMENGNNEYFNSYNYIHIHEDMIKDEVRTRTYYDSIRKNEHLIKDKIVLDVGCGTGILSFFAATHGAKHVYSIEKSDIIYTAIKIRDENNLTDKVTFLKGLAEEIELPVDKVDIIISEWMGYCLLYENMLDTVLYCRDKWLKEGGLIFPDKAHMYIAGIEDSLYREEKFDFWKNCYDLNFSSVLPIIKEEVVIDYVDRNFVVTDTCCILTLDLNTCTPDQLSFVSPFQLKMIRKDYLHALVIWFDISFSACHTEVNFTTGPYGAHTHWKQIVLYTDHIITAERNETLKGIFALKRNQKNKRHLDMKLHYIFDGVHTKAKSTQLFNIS
The assay is described as follows: Inhibition of recombinant PfPRMT1 methylation activity. The class given is biochemical. The note with it: chaetocin: in the lower micromolar concentration.

The mark [4] stands for this setting: late ring-stage parasites, 48 h, 37°C, 2% parasitemia, 2% hematocrit.
Where [5] appears, read: Plasmodium falciparum, 3D7, 48 h.

Regarding `CSC[C@H]1O[C@@H](n2cnc3c(N)ncnc32)[C@H](O)[C@@H]1O` [5-Deoxy-5-methylthioadenosine (MTA), 5-Deoxy-5-methylthioadenosine], in assay [1] (setting [4]), the IC50 was above 100 µM.
For the compound `C[S+](CC[C@H](N)C(=O)[O-])C[C@H]1O[C@@H](n2cnc3c(N)ncnc32)[C@H](O)[C@@H]1O` (stereo partly drawn) [AdoMet, S-adenosylmethionine], in assay [2] (read-out: Km, rPRMT1, ref [31]), the Michaelis constant (Km) is 2.52 ± 0.54 µM. Besides, in assay [2] (ref [31]), the “kcat, rPRMT1” value is 0.014 ± 0.0005 s⁻¹.
For the compound `CN1C(=O)[C@@]23C[C@]4([C@]56C[C@@]78SS[C@@](CO)(C(=O)N7[C@H]5Nc5ccccc56)N(C)C8=O)c5ccccc5N[C@@H]4N2C(=O)[C@]1(CO)SS3` [Chaetocin], the IC50 in assay [1] (setting [5]) is 14 ± 1.56 µM. Moreover, in assay [3], the “Inhibition of PfPRMT1 (in words)” value is given as “no obvious inhibition”.
Taken in the same sequence, the figures for `O=C1OC2(c3ccccc31)c1cc(Br)c(O)c(Br)c1Oc1c2cc(Br)c(O)c1Br` [Eosin Y (AMI-5), Eosin Y] were 14.8 ± 1.01 µM and “strong inhibitory activity”.
Take `Nc1ncnc2c1ncn2[C@@H]1O[C@H](C[C@@H](N)CC[C@H](N)C(=O)O)[C@@H](O)[C@H]1O` [Sinefungin]: the IC50 in assay [1] (setting [5]) is 2.71 ± 0.04 µM. For the same compound, the “IC50s for 3D7 growth” value in assay [1] (setting [4]) is given as “lower micromolar”.

These data come from paper PMC8815339 (The Biochemical journal, 2009).
